Data from PMC9865890, “N-Derivatives of (Z)-Methyl 3-(4-Oxo-2-thioxothiazolidin-5-ylidene)methyl)-1H-indole-2-carboxylates as Antimicrobial Agents—In Silico and In Vitro Evaluation” (Pharmaceuticals, 2023).
Like-named read-outs stand apart in the source and are kept apart here.

How the values were obtained:
[1] = system: Bacillus cereus (clinical isolate); test: Antibacterial microdilution (MIC/MBC); assay type: cell-based; details: B.c. (B. cereus)
Outline: (§1)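 MIC and MBC values came from a modified broth microdilution method, with ampicillin and streptomycin run alongside as reference drugs.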

[2] = system: Enterobacter cloacae (clinical isolate); test: Antibacterial microdilution (MIC/MBC); assay type: cell-based; details: En.cl (En. cloacae)
Outline: as §1

[3] = system: Escherichia coli (ATCC 35210); test: Antibacterial microdilution (MIC/MBC); assay type: cell-based; details: E. coli
Outline: as §1

[4] = system: Listeria monocytogenes (NCTC 7973); test: Antibacterial microdilution (MIC/MBC); assay type: cell-based; details: Listeria monocytogenes, NCTC7973, L.m. (L. monocytogenes); for MIC: read-out: MIC
Outline: as §1

M. flavus = test: Antibacterial microdilution (MIC/MBC); assay type: cell-based; details: Micrococcus flavus; M.f. (M. flavus)
Outline: as §1

P. aeruginosa = test: Antibacterial microdilution (MIC/MBC); assay type: cell-based; details: P.a. (P. aeruginosa)
Outline: as §1

[5] = system: Salmonella typhimurium (ATCC 13311); test: Antibacterial microdilution (MIC/MBC); assay type: cell-based; details: S.t. (S. typhimurium)
Outline: as §1

[6] = system: Staphylococcus aureus (ATCC 6538); test: Antibacterial microdilution (MIC/MBC); assay type: cell-based; details: Staphylococcus aureus, ATCC6538, S.a. (S. aureus); for MIC: read-out: MIC
Outline: as §1

A. ochraceus = test: Antifungal bioassay (MIC/MFC); assay type: cell-based; details: A.o. (A. ochraceus)
Outline: (§2)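 In duplicate: all strains tested this way.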

[7] = system: Aspergillus fumigatus (ATCC 1022); test: Antifungal bioassay (MIC/MFC); assay type: cell-based; details: ATCC1022, A.f. (A. fumigatus)
Outline: as §2

[8] = system: Aspergillus niger (ATCC 6275); test: Antifungal bioassay (MIC/MFC); assay type: cell-based; details: ATCC6275, A.n. (A. niger)
Outline: as §2

[9] = system: Aspergillus versicolor (ATCC 11730); test: Antifungal bioassay (MIC/MFC); assay type: cell-based; details: ATCC11730, A.v. (A. versicolor)
Outline: as §2

P. ochrochloron = test: Antifungal bioassay (MIC/MFC); assay type: cell-based; details: Penicillium ochrochloron; for MFC: P.o. (P. ochrochloron); for MIC: P.o. (P. ochrochloron; text: P. ochramensis), read-out: MIC
Outline: as §2

[10] = system: Penicillium funiculosum (ATCC 36839); test: Antifungal bioassay (MIC/MFC); assay type: cell-based; details: Talaromyces funiculosus, ATCC36839; P.f. (P. funiculosum)
Outline: as §2

[11] = system: Trichoderma viride (IAM 5061); test: Antifungal bioassay (MIC/MFC); assay type: cell-based; details: T.v. (T. viride)
Outline: as §2

[12] = system: Penicillium verrucosum var. cyclopium (food isolate); test: Antifungal bioassay (MIC/MFC); assay type: cell-based
in vitro = assay type: cell-based; details: human
Method: To evaluate cytotoxicity, compounds 1, 2, 8, and 11 were chosen to be tested in the human normal fetal lung fibroblast MRC-5 cell line within the following range of three concentrations for each substance: 1 × 10^−7 M (0.1 μM), 1 × 10^−6 Μ (1 μM), and 1 × 10^−5 M (10 μΜ). […] More specifically, under this exposure to compound 11, the cellular viability was measured to the level of 91.0%.
The normal human fetal lung fibroblast MRC-5 cell line was maintained and used in our laboratory (Dr. I.s.Vizirianakis, Laboratory of Pharmacology, School of Pharmacy, Aristotle University of Thessaloniki, Greece) (passage 15 < 40), as previously published. Cells were grown in culture under the following conditions: 37 °C, humidified atmosphere containing 5% v/v CO2, in DMEM (Dulbecco’s modified Eagle Medium) enriched with 10% FBS and 1% PS. The compounds tested were dissolved in DMSO and stored at 4 °C. […] After the incubation, the OD for each well was determined at 450 nm in a multifunction microplate reader. […] Statistical t-test and one-way analysis of variance (ANOVA) were performed via the use of the SPSS program and the significance level was determined at p < 0.05.

[13] = Enterobacter cloacae, read-out: MIC
[14] = Escherichia coli, ATCC35210, read-out: MIC
[15] = Pseudomonas aeruginosa, read-out: MIC
[16] = Salmonella enterica, read-out: MIC
[17] = Aspergillus ochraceus, read-out: MIC
[18] = Trichoderma viride, IAM5061, read-out: MIC

COC(=O)c1[nH]c2ccccc2c1/C=C1\SC(=S)N(CC(=O)O)C1=O [Compound 11, (Z)-2-(5-((2-(methoxycarbonyl)-1H-indol-3-yl)methylene)-4-oxo-2-thioxothiazolidin-3-yl)acetic acid]
15 µg/mL: MIC [3, 14] | MIC [5, 16]
15 ± 3 µg/mL: MFC (A. ochraceus; Aspergillus ochraceus) | MIC [8] | MIC [9] | MIC (P. ochrochloron) | MIC [10] | MFC ([11]; Trichoderma viride, IAM5061) | MIC [12]
8 µg/mL: MIC ([1]; Bacillus cereus, read-out: MIC) | MIC (A. ochraceus; [17]) | MIC [11, 18]
292 to 294 °C: melting point
120 ± 40 µg/mL: MFC [7]
60 ± 6 µg/mL: MBC [4] | MBC (M. flavus) | MIC [7]
91%: viability at 48 h, 1 µM (in vitro) | viability at 48 h, 10 µM (in vitro)
11 µg/mL: MIC [2, 13] | MIC (P. aeruginosa; [15])
15 ± 9 µg/mL: MBC ([1]; Bacillus cereus) | MIC [3] | MIC [5] | MBC [6]
8 ± 0.6 µg/mL: MIC [1] | MIC [6] | MIC (A. ochraceus) | MIC [11]
11 ± 10 µg/mL: MIC [2] | MIC (P. aeruginosa)
30 ± 10 µg/mL: MBC ([2]; Enterobacter cloacae) | MBC ([3]; Escherichia coli, ATCC35210) | MIC [4] | MIC (M. flavus) | MBC (P. aeruginosa; Pseudomonas aeruginosa) | MBC ([5]; Salmonella enterica) | MFC [8] | MFC [9] | MFC (P. ochrochloron) | MFC [10] | MFC [12]

COC(=O)c1[nH]c2ccc(F)cc2c1/C=C1\SC(=S)N(N2CCOCC2)C1=O [Compound 16, (Z)-methyl 5-fluoro-3-((3-morpholino-4-oxo-2-thioxothiazolidin-5-ylidene)methyl)-1H-indole-2-carboxylate]
8 µg/mL: MIC [11, 18]
15 ± 3 µg/mL: MIC (A. ochraceus; [17]) | MIC [7] | MIC [8] | MIC [9] | MIC (P. ochrochloron) | MIC [10] | MFC ([11]; Trichoderma viride, IAM5061) | MIC [12]
8 ± 0.6 µg/mL: MIC [11]
22 ± 5 µg/mL: MIC [6]
45 ± 3 µg/mL: MIC [2, 13] | MIC [4] | MIC (M. flavus) | MIC [5, 16]
60 ± 6 µg/mL: MBC ([2]; Enterobacter cloacae) | MBC ([3]; Escherichia coli, ATCC35210) | MBC [4] | MBC (M. flavus) | MBC (P. aeruginosa; Pseudomonas aeruginosa) | MBC ([5]; Salmonella enterica)
273 to 274 °C: melting point
30 ± 10 µg/mL: MBC ([1]; Bacillus cereus) | MIC [3, 14] | MIC (P. aeruginosa; [15]) | MBC [6] | MFC (A. ochraceus; Aspergillus ochraceus) | MFC [7] | MFC [8] | MFC [9] | MFC (P. ochrochloron) | MFC [10] | MFC [12]
15 ± 9 µg/mL: MIC ([1]; Bacillus cereus, read-out: MIC)
